Values of other authors as cited in US6576415B2, “Photothermographic materials with increa sed photosensitivity” (priority 2000, dated 2003).
Read-outs that look alike come from different tables or passages of the source.

Structure (SMILES) | Solubility in water (at 15° C.) | Solubility in water (at 20° C.)
[Ag+].[Ag+].[O]=[W](=[O])([O-])[O-] [silver tungstate] | 500 µg/mL | 
O=P(=O)[O-].[Ag+] [silver metaphosphate] |  | 3200 µg/mL
